Values of other authors in US20070286899A1, “Photo-composition for the treatment of joint diseases” (priority 2004, published 2007).

Tested on: patients who use methotrexate

Q: With `CN(Cc1cnc2nc(N)nc(N)c2n1)c1ccc(C(=O)N[C@@H](CCC(=O)O)C(=O)O)cc1` [methotrexate] as the compound, how does the “patients who develop gastrointestinal problems such as diarrhea and nausea” value read?
A: Its value is 60%.
